According to patent US4897417A, “Prodrugs of 3,4-hydroxy benzoyloxypropanolamines” (E. I. Du Pont de Nemours & Co., priority 1988, dated 1990):

How the values were obtained:
[1] = tested on: isoproterenol-induced increase in heart rate; test: Effect on systemic beta-blockade upon topical administration (isoproterenol-induced heart rate in anesthetized dogs); assay type: in vivo, Mongrel dogs; settings: for HR, ISO only: 0 min (dose), isoproterenol only, before treatment; for HR, ISO only / HR, baseline: 0.125% group; for HR: 0.125% topical, isoproterenol infusion 0.5 μg/kg/min; for HR, baseline: -30 min, before isoproterenol and before treatment; for systemic beta-blockade of isoproterenol-induced increase in heart rate / effect on the heart rate responses to isoproterenol: in words, 50 μL, 0.125% solution; for effect on the heart rate responses to isoproterenol: topical; for drop in heart rate: within 60 minutes, 0.125% concentration
Protocol: Mongrel dogs were anesthetized and control readings were made at -45 and -30 minutes. Following the -30 minute reading, an infusion of isoproterenol (0.5 μg/kg/min) was begun and maintained during the course of the experiment. Two readings of pretreatment isoproterenol responses were made at […] and at zero minutes. At zero minutes, a 50 μL sample of test compound was administered topically. This dose was repeated at 50, 60 and 90 minutes and the animal was monitored for heart rate for 180 minutes following the first application. Heart rate was obtained directly from the strip chart recording.

[2] = tested on: isoproterenol-induced increase in heart rate; test: as above; assay type: in vivo, Mongrel dogs; settings: 120 min (dose) post-treatment, 0.125% topical, isoproterenol infusion 0.5 μg/kg/min
[3] = Ocular bioavailability in rabbits (aqueous humor levels after topical corneal dosing); assay type: in vivo, New Zealand White Rabbits; settings: for area under the AH concentration time curve (AUC0-240'): 50 μL of 0.25% Timolol or 0.5% compound 8d; for absorption in the eye: topical
Protocol: The ocular bioavailability of Timolol and compound 8d (dipivaloyl ester prodrug of compound 9d) was evaluated in New Zealand White Rabbits. Fifty μL of a solution of 0.25% Timolol or 0.5% compound 8d (both in the same vehicle) were administered onto the cornea of both eyes of 48 rabbits (24 rabbits/compound). At 5, 15, 30, 60, 120, 180, 240, and 360 minutes after dosing, 3 rabbits (6 eyes) per compound were killed. Aqueous humor (AH), was quickly removed from the eyes, weighed and processed to determine tissue levels of Timolol or compound 8d and compound 9d.

| Compound | HR, ISO only [1] | HR ([1]; 15 min post-treatment) | HR ([1]; 30 min post-treatment) | HR ([1]; 45 min post-treatment) | HR ([1]; 60 min (dose) post-treatment) | HR ([1]; 90 min post-treatment) | HR ([1]; 150 min post-treatment) | HR, baseline [1] | systemic beta-blockade of isoproterenol-induced increase in heart rate [1] | effect on the heart rate responses to isoproterenol [1] | drop in heart rate [1] | HR [2] | area under the AH concentration time curve (AUC0-240') ([3]; aqueous humor, rabbits) | AUC of compound 8d in AH relative to AUC of Timolol in AH ([3]; aqueous humor, rabbits, after 0.25% Timolol or 0.5% compound 8d) | absorption in the eye ([3]; in words, rabbits) | delivery of compound 9d to the internal structures of the eye ([3]; in words, rabbits, topical compound 8d) | stability in rabbit ocular tissues ([3]; in words) |
| --- | --- | --- | --- | --- | --- | --- | --- | --- | --- | --- | --- | --- | --- | --- | --- | --- | --- |
| CC(=O)NCC(C)(C)NCC(O)COC(=O)c1cc(OC(=O)C(C)(C)C)c(OC(=O)C(C)(C)C)cc1C (stereo not drawn) [Compound 8a] | 215 bpm | 214 bpm | 213 bpm | 210 bpm | 208 bpm | 207 bpm | 202 bpm | 152 bpm | no systemic beta-blockade | no effect | 2 bpm | 203 bpm | – | – | – | – | – |
| Cc1cc(OC(=O)C(C)(C)C)c(OC(=O)C(C)(C)C)cc1C(=O)OCC(O)CNC(C)(C)CNC(N)=O (stereo not drawn) [Compound 8c] | 212 bpm | 212 bpm | 210 bpm | 210 bpm | 210 bpm | 210 bpm | 212 bpm | 158 bpm | no systemic beta-blockade | no effect | 7 bpm | 210 bpm | – | – | – | – | – |
| Cc1cc(OC(=O)C(C)(C)C)c(OC(=O)C(C)(C)C)cc1C(=O)OCC(O)CNC(C)(C)CNC(=O)C1CCOC1 (stereo not drawn) [Compound 8d] | – | – | – | – | – | – | – | – | – | – | – | – | 27,377 ng/100 μL/min | 3 × | rapidly absorbed in the eye | effectively delivers compound 9d to the internal structures of the eye | – |
| Cc1cc(O)c(O)cc1C(=O)OCC(O)CNC(C)(C)CNC(=O)C1CCOC1 (stereo not drawn) [Compound 9d] | – | – | – | – | – | – | – | – | – | – | – | – | – | – | – | – | stable in rabbit ocular tissues |
| CC(C)(C)NC[C@H](O)COc1nsnc1N1CCOCC1 [Timolol, reference compound] | 213 bpm | 198 bpm | 185 bpm | 174 bpm | 174 bpm | 179 bpm | 192 bpm | 142 bpm | – | significant inhibitory effect | 39 bpm | 183 bpm | 9,022 ng/100 μL/min | – | rapidly absorbed in the eye | – | – |
